Laboratory results reported in publication PMC8690933, “Evans blue-modified radiolabeled fibroblast activation protein inhibitor as long-acting cancer therapeutics” (Theranostics, 2022).
“Also recorded” adds a separate entry of the source.

Tests used:
FAP = biological target: T1, FAP (Homo sapiens, UniProt Q12884); experiment: Competition assay against ^68Ga-FAPI-02 in U87MG cells; settings: unlabeled ligand competing with ^68Ga-FAPI-02, 1 h, read-out: IC50 (binding affinity to FAP in vitro)
T1 construct: endogenous in cells; host or cells: U87MG cells
T1 sequence (Q12884 1-760): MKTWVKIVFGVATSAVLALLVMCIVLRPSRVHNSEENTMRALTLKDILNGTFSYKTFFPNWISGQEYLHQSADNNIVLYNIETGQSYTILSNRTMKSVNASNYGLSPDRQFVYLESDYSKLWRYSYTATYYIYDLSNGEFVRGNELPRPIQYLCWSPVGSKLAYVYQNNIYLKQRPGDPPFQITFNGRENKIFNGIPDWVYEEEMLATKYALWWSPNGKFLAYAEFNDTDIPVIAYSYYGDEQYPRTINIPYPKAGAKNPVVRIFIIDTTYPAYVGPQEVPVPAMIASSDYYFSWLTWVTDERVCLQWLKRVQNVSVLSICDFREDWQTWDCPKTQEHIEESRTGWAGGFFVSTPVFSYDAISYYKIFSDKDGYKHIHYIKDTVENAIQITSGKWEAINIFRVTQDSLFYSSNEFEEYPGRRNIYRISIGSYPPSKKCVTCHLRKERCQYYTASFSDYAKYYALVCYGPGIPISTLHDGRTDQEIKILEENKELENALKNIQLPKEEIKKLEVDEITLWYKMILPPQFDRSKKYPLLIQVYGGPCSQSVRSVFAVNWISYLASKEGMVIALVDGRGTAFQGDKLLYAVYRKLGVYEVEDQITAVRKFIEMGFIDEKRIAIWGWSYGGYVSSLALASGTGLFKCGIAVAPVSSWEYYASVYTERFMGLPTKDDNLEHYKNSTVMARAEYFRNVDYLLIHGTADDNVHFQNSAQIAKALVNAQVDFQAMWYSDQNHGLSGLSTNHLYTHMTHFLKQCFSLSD
Experimental: (§1) U87MG cells were cultivated in Dulbecco modified Eagle medium (DMEM) containing 10% fetal calf serum (FCS) at 37 ℃ in 5% carbon dioxide (CO2). For cell uptake experiment, U87MG cells were seeded in 24-well plates (2 × 10^5/well) overnight. The cells were incubated with 37 kBq of ^177Lu-EB-FAPI series compounds in 0.5 mL of medium for 0.5, 1, 2, 4, 8 and 24 h at 37 °C. In the blocking group, FAPI-02 (10 μg/well) were added as inhibitors of the labeled precursors. For competition assays, U87MG cells were incubated simultaneously with different concentrations (10^-5-10^-11 M) of unlabeled FAPI-02 or EB-FAPI-B1 and ^68Ga-FAPI-02 in 0.4 mL of fresh medium for 1 h. At the corresponding time points, the medium was removed and the cells were washed twice with cold PBS (pH 7.4) and subsequently lysed with 1 mL of NaOH (0.1 M). Cell lysates was collected and the radioactivity was determined using a γ-counter. The cell uptake experiment was repeated four times for each time point and the competition assays were repeated three times at different concentrations.

U87MG tumor [1] = experiment: Small animal PET imaging in U87MG tumor-bearing mice; assay type: in vivo; settings: 1 h p.i.
Experimental: All animal studies were approved by the Animal Care and Use Committee of Xiamen University and carried out in compliance with the national laws related to the conduct of animal experimentation. 6-week-old female BALB/c nude mice from Beijing Vital River Laboratory Animal Technology Co., Ltd. were used in this study. The right upper limbs of BALB/c nude mice were subcutaneously inoculated with the suspension of U87MG cells (5 × 10^6 cells in 100 μL of PBS). […] PET scans were performed by using Inveon small-animal PET scanner (Siemens Preclinical Solution). […] At 1 h p.i., the mice were anaesthetized and placed on the bed for PET imaging. […] PET images were reconstructed with attenuation correction and analyzed through drawing regions of interest (ROIs).

[2] = Safety evaluation in the therapy study (body weight, H&E staining of major organs); assay type: in vivo, BALB/c nude mice
Experimental: (§2) Two weeks after inoculation of U87MG tumor cells, the average tumor volume reached about 100 mm^3 in BALB/c nude mice. The U87MG tumor-bearing mice were randomly divided into 4 groups (n = 8/group), and subsequently treated with saline, 30 MBq ^177Lu-EB-FAPI-B1, 18.5 MBq ^177Lu-EB-FAPI-B1, 7.4 MBq ^177Lu-EB-FAPI-B1, respectively. Tumor volumes and body weights of all mice were monitored every two days. Individual tumor size was calculated with the formula: length × width^2/2. The mice were euthanized when the tumor volume exceeded 1500 mm^3. Histopathologic staining was performed with an anti-human FAP mAb (ab207178, Abcam). Hematoxylin and eosin (H&E) staining and terminal deoxynucleotidyl transferase-mediated dUTP-biotin nick-end labeling (TUNEL) analysis were carried out using a commercially available kit (Beyotime).

U87MG tumor [3] = experiment: Biodistribution in U87MG tumor-bearing mice at 96 h p.i.; parameters: species or system BALB/c nude mice; settings: ex vivo counting
Experimental: (§3) All animal studies were approved by the Animal Care and Use Committee of Xiamen University and carried out in compliance with the national laws related to the conduct of animal experimentation. 6-week-old female BALB/c nude mice from Beijing Vital River Laboratory Animal Technology Co., Ltd. were used in this study. The right upper limbs of BALB/c nude mice were subcutaneously inoculated with the suspension of U87MG cells (5 × 10^6 cells in 100 μL of PBS). The mice underwent radioligand therapy experiments when the tumor volume reached about 100 mm^3 and small animal SPECT imaging studies when the tumor volume reached about 500 mm^3.
(§4) In biodistribution study of normal mice, healthy ICR mice (18-20 g) were randomly divided into 6 groups (n = 4/group), injected with radiotracers (740 kBq in 0.1 mL saline) and sacrificed at 0.25, 1, 4, 8, 24 and 48 h p.i. Tissues and organs of interest were collected, wet weighed, and counted by a γ-counter. In addition, BALB/c nude mice bearing U87MG tumors were injected with radiotracers for SPECT imaging, and then, sacrificed at 96 h p.i., the major organs and tumors were collected and weighed. Radioactivity was detected using a γ-counter, and the results were calculated as percentage of injected dose per gram (%ID/g).

[4] = In vitro stability in PBS and saline (radio-HPLC/TLC); assay type: physicochemical
U87MG tumor [5] = experiment: Small animal SPECT/CT imaging in U87MG tumor-bearing mice; assay type: in vivo, BALB/c nude mice
Experimental: as §3
SPECT/CT imaging studies were performed using a nanoSPECT/CT preclinical scanner (Mediso, Hungary). About 37 MBq of radiotracers were injected intravenously into female ICR mice and U87MG tumor-bearing mice, whole body SPECT images were acquired at 1, 4, 24, 48, 72 and 96 h p.i. The acquisition parameters were as follows: 56.1, 112.9 and 208.4 keV energy peaks for ^177Lu, window width of 20%, matrix of 256 × 256, medium zoom, and 48 frames. Mice were anaesthetized using 1.5% isoflurane to maintain spontaneous breathing during imaging.

U87MG tumor [6] = experiment: Radioligand therapy study and tumor histopathology in U87MG tumor-bearing mice; assay type: in vivo, BALB/c nude mice
Experimental: as §3, §2

[7] = Octanol/water partition coefficient; assay type: physicochemical
Experimental: A detailed scheme of chemical synthesis protocol is elaborated in the supplementary materials. To radiolabel the precursor with ^177Lu, 185-740 MBq of ^177LuCl3 was firstly diluted with 0.2 mL of 0.5 M NH4OAc (pH = 5.5) before incubating with EB-FAPI-Bn (50 μg dissolved in 10 μL dimethyl sulfoxide). The mixture was heated and thoroughly mixed for 30 min at 95 °C. Radiolabeling efficiency and radiochemical purity were tested using thin-layer chromatography (TLC) and high-performance liquid chromatography (HPLC). Radiolabeling of ^68Ga was performed by incubating with 50 μg precursor (pH = 4.5-5.0) at 95 ℃ for 10 min. The ^68Ga-labeled product was purified by C18 column extraction and the radiochemical purity was determined by HPLC. Stability of ^177Lu-EB-FAPI-B1, ^177Lu-EB-FAPI-B2, ^177Lu-EB-FAPI-B3 and ^177Lu-EB-FAPI-B4 (See Figure 1 for the structures) in PBS and saline were monitored up to 24 h using radio-HPLC. More information about radiochemistry, quality control and octanol/water partition coefficient can be found in supplemental information.

[8] = Biodistribution in healthy ICR mice; assay type: in vivo
Experimental: as §4

U87MG cells = experiment: Cell uptake and blocking assay; assay type: cell-based
Experimental: as §1

[9] = SPECT, value given with the increase from 24 h to 96 h p.i.

N#C[C@@H]1CCCN1C(=O)CNC(=O)c1ccnc2ccc(OCCCN3CCN(C(=O)CN4CCN(CC(=O)O)CCN(CC(=O)O)CCN(CC(=O)O)CC4)CC3)cc12 [FAPI-02]
IC50 (FAP): 10.9 nM

Cc1cc(-c2ccc(NC(=O)C(CCCCNC(=O)CCC(=O)N3CCN(CCCOc4ccc5nccc(C(=O)NCC(=O)N6CCC[C@H]6C#N)c5c4)CC3)NC(=O)CN3CCN(CC(=O)[O-])CCN(CC(=O)[O-])CCN(CC(=O)[O-])CC3)c(C)c2)ccc1N=Nc1ccc2c(S(=O)(=O)O)cc(S(=O)(=O)O)c(N)c2c1O.[68Ga+3] (some centres unmarked) [^68Ga-EB-FAPI-B1]
T/M ratio compared with ^68Ga-FAPI-02 (U87MG tumor [1]): higher T/M ratio | tumor uptake value (U87MG tumor [1]): 3.5 ± 0.22 %ID/g

N#C[C@@H]1CCCN1C(=O)CNC(=O)c1ccnc2ccc(OCCCN3CCN(C(=O)CN4CCN(CC(=O)[O-])CCN(CC(=O)[O-])CCN(CC(=O)[O-])CC4)CC3)cc12.[68Ga+3] [^68Ga-FAPI-02, reference compound]
tumor uptake value (U87MG tumor [1]): 0.85 ± 0.21 %ID/g | tumor uptake in the presence of the blocking agent EB-FAPI-B1 (U87MG tumor [1]; unlabeled EB-FAPI-B1 as competitor): decreased more than half

Cc1cc(-c2ccc(NC(=O)C(CCCCNC(=O)CCC(=O)N3CCN(CCCOc4ccc5nccc(C(=O)NCC(=O)N6CCC[C@H]6C#N)c5c4)CC3)NC(=O)CN3CCN(CC(=O)[O-])CCN(CC(=O)[O-])CCN(CC(=O)[O-])CC3)c(C)c2)ccc1N=Nc1ccc2c(S(=O)(=O)O)cc(S(=O)(=O)O)c(N)c2c1O.[177Lu+3] (some centres unmarked) [^177Lu-EB-FAPI-B1]
body weight change ([2]; all treatment groups (30, 18.5, 7.4 MBq)): slight body weight loss | H&E staining of major organs (safety evaluation) ([2]; heart, liver, spleen, lung, kidneys after treatment): negligible side effect; also recorded: no distinct tissue damage | tumor uptake (U87MG tumor [3]): 12.42 ± 1.54 %ID/g | time stable in PBS (pH 7.4) and saline ([4]; PBS (pH 7.4) and saline): at least 24 h | radiochemistry purity after incubation ([4]; PBS and saline, at 24 h and 48 h): over 95% | tumor uptake on SPECT images (U87MG tumor [5]; 4 h p.i.): obvious tumor uptake was observed | tumor-to-muscle ratio (T/M) (U87MG tumor [5]; SPECT, 24 h p.i.): 12.29 ± 0.85 | tumor-to-muscle ratio (T/M), peak (U87MG tumor [5]; SPECT, 72 h p.i.): 18.67 ± 3.75 | tumor-to-muscle ratio (T/M) (U87MG tumor [5]; SPECT, 96 h p.i.): 14.15 ± 0.13 | tumor-to-heart ratio (T/H) (U87MG tumor [5]; [9]): 14.28 ± 2.46 | tumor-to-kidney ratio (T/K) (U87MG tumor [5]; [9]): 2.35 ± 0.61 | tumor-to-liver ratio (T/L) (U87MG tumor [5]; [9]): 3.73 ± 1.21 | TUNEL staining of excised tumor (U87MG tumor [6]; 18.5 MBq group versus saline group): remarkably more cell apoptosis | relative tumor size (U87MG tumor [6]; single dose of 30, 18.5 or 7.4 MBq (all three doses), day 0 to day 22): no more than 5 | tumor growth compared to the saline group (U87MG tumor [6]; single dose of 30 MBq, 18.5 MBq or 7.4 MBq): noteworthy tumor growth inhibitions; also recorded: noteworthy tumor growth delay | H&E staining of excised tumor (U87MG tumor [6]; treatment groups versus saline group): large necrotic areas | Octanol/water partition coefficient (Log P) [7]: -1.90 ± 0.12 | blood uptake ([8]; 4 h p.i.): 21.93 ± 2.13 %ID/g | kidney uptake (highest value) ([8]; 8 h p.i.): 16.38 ± 2.98 %ID/g | kidney uptake ([8]; 48 h p.i.): 8.13 ± 1.36 %ID/g | cellular uptake with blocking by unlabeled inhibitor (U87MG cells; blocking group): 2.25 ± 0.14% | highest cellular uptake (U87MG cells; incubation for 24 h): 9.97 ± 0.42%

N#C[C@@H]1CCCN1C(=O)CNC(=O)c1ccnc2ccc(OCCCN3CCN(C(=O)CN4CCN(CC(=O)[O-])CCN(CC(=O)[O-])CCN(CC(=O)[O-])CC4)CC3)cc12.[177Lu+3] [^177Lu-FAPI-02, reference compound]
blood accumulation relative to ^177Lu-EB-FAPI-B1 ([8]; 4 h p.i.): about 1% | blood uptake ([8]; 4 h p.i.): 0.23 ± 0.06 %ID/g
